System: NK1 receptor
Assay: NK1 Receptor Antagonism Assay (calcium imaging, substance P stimulation)
Type: cell-based, human
Conditions: for efficacy at a low concentration (in words): 0.1 ppm; for effect as the NK1 receptor antagonist (in words): summary of Table 1
Excerpt: [Performance Evaluation Test] NK1 Receptor Antagonism Assay
In this test, maltose, maltotriose, maltotetraose, maltopentaose, maltohexaose and maltoheptaose were purchased from SIGMA, isomaltose, isomaltotriose, isomaltotetraose, isomaltopentaose, isomaltohexaose and isomaltoheptaose were purchased from Seikagaku Corporation, and four types of oligosaccharides-1-kestose, fructofranosylnystose, nystose and galactotetraose—were purchased from Wako Pure Chemicals Industries Ltd. Each oligosaccharide was diluted with saline, and used.
In order to transiently express a cloned human NK1 receptor in HEK293, cDNA of the human NK1 receptor was cut out from pCDM8 (Invitrogen), and cloned in an expression vector pCDM9 derived by inserting an ampicillin resistant gene (BLUESCRIPT, nucleotides 1973 to 2964 from SK+) at a SacII site.
HEK293 cells were seeded at 1×10^5 cells in a Falcon dish (diameter: 3.5 cm) using α-MEM medium (Gibco) containing 10% bovine fetal serum, and cultured in a 5% CO2 incubator at 37° C. overnight. Then, 20 μg of the expression vector was transfected using Transfection Reagent FuGENE6 (Roche) according to attached instructions, and the transfectants were incubated at 37° C. for 3 days and assayed by a calcium imaging method.
According to Renganathan et al's method (Renganathan M et al., J. Neurophysiol., 84(2), […] (2000)), nerve cells were dispersed and isolated from spinal dorsal root ganglion in a wild type mouse, and 1×10^5 thereof were seeded in a 24-well plate coated with poly-L-lysine. The cells were cultured in 90% DMEM medium (GIBCO) supplemented with 10% bovine fetal serum, 2 mM glutamine, 100 U/mL of penicillin/streptomycin, 100 ng/mL of NGF (SIGMA) and 5 μM cytosine arabinoside (SIGMA) under 5% CO2 at 37° C. The cells were cultured for 1 to 3 weeks, and subsequently subjected to a calcium imaging analysis. A half of the nerve cells was identified to be positive for the NK1 receptor by staining the nerve cells derived from spinal dorsal root ganglion in the wild type mouse with an anti-NK1 receptor antibody (supplied from CHEMICON International).
The cells which express the NK1 receptor transiently or constitutively were subjected to measurement using a high resolution digital B/W cooling CCD camera (ORCA supplied from Hamamatsu Photonics K.K.), and their images were analyzed using an analysis software (AQUA COSMOS supplied from Hamamatsu Photonics K.K.). When the cells were labeled for calcium, Fluo4-AM (supplied from Molecular Probe) was used as a calcium sensitive dye. Fifty μg of Fluo4-AM was dissolved in 400 μL of DMSO in a vial, 4 μL of Pluronic F-127 (Molecular Probe) was added and mixed, and then 4 mL of OPTI-MEM (GIBCO) was added thereto. The calcium sensitive dye solution thus prepared was added to the cells, which were then incubated at 37° C. for 60 minutes. An agonist, an antagonist and samples to be evaluated were prepared at concentrations which were 10 times higher than assay concentrations, and analyzed by adding a one tenth volume of the cell suspension upon analysis. All reagents and an assay temperature were kept at 37° C. For the cells transfected transiently, YFP reporter DNA fluorescence (excitation: 490 nm) was used for identifying the transfected cells. Upon measurement, a fluorescence intensity obtained by initially imaging the untreated cells was made an initial value. After passing one minute, a change of calcium/fluorescence intensity in the sample to be evaluated at the desired concentration was monitored with an interval of one second before and after the addition (2 to 5 minutes). Subsequently, substance P was added, and immediately after (2 to 5 minutes), an antagonistic activity of the sample to be evaluated was determined by monitoring the change of intracellular calcium concentrations as the change of the fluorescence intensities with the interval of one second. […]

[1] = evaluated concentration 0.1 ppm, substance P 100 μM
[2] = evaluated concentration 1 ppm, substance P 100 μM
[3] = evaluated concentration 10 ppm, substance P 100 μM
[4] = evaluated concentration 100 ppm, substance P 100 μM
[5] = evaluated concentration 1000 ppm, substance P 100 μM

Row | Compound | efficacy at a low concentration (in words) | Efficacy (NK1 receptor antagonistic activity grade) [1] | Efficacy (NK1 receptor antagonistic activity grade) [2] | Efficacy (NK1 receptor antagonistic activity grade) [3] | Efficacy (NK1 receptor antagonistic activity grade) [4] | Efficacy (NK1 receptor antagonistic activity grade) [5] | effect as the NK1 receptor antagonist (in words) | NK1 receptor antagonistic activity (positive control, 100 ppm (Table 1), substance P 100 μM)
1 | OC[C@H]1O[C@H](O[C@H]2[C@H](O)[C@@H](O)[C@@H](O[C@H]3[C@H](O)[C@@H](O)[C@@H](O[C@H]4[C@H](O)[C@@H](O)C(O)O[C@@H]4CO)O[C@@H]3CO)O[C@@H]2CO)[C@H](O)[C@@H](O)[C@@H]1O (some centres unmarked) [Maltotetraose, maltotetraose] | high efficacy | B (Effective: the antagonistic activity was 65% or more and less than 75% and the more excellent performance than in the positive control was shown.) | A (Complete response: the antagonistic activity was 75% or more and much more excellent performance than in the positive control was shown.) | A (Complete response: the antagonistic activity was 75% or more and much more excellent performance than in the positive control was shown.) | A (Complete response: the antagonistic activity was 75% or more and much more excellent performance than in the positive control was shown.) | A (Complete response: the antagonistic activity was 75% or more and much more excellent performance than in the positive control was shown.) | high effect | 
2 | OC[C@H]1O[C@@](CO)(OC[C@@]2(OC[C@@]3(O[C@H]4O[C@H](CO)[C@@H](O)[C@H](O)[C@H]4O)O[C@H](CO)[C@@H](O)[C@@H]3O)O[C@H](CO)[C@@H](O)[C@@H]2O)[C@@H](O)[C@@H]1O [Nystose, nystose, reference compound] |  |  |  |  |  | D (Ineffective: the antagonistic activity was less than 65%, or the stimulating or agonistic activity of the sample was strong.) | no NK1 receptor antagonistic activity was observed at all | 
3 | SPANTIDE II: standard substance SPANTIDE II (peptidic analog of substance P), positive control (SPANTIDEII) [reference compound] |  |  |  |  |  |  |  | 65%
4 | maltoheptaose |  | D (Ineffective: the antagonistic activity was less than 65%, or the stimulating or agonistic activity of the sample was strong.) | C (Slightly effective: the antagonistic activity was less than 65%, and a stimulating or agonistic activity of the sample was weak.) | C (Slightly effective: the antagonistic activity was less than 65%, and a stimulating or agonistic activity of the sample was weak.) | B (Effective: the antagonistic activity was 65% or more and less than 75% and the more excellent performance than in the positive control was shown.) | B (Effective: the antagonistic activity was 65% or more and less than 75% and the more excellent performance than in the positive control was shown.) | high effect | 
5 | maltohexaose |  | C (Slightly effective: the antagonistic activity was less than 65%, and a stimulating or agonistic activity of the sample was weak.) | C (Slightly effective: the antagonistic activity was less than 65%, and a stimulating or agonistic activity of the sample was weak.) | B (Effective: the antagonistic activity was 65% or more and less than 75% and the more excellent performance than in the positive control was shown.) | B (Effective: the antagonistic activity was 65% or more and less than 75% and the more excellent performance than in the positive control was shown.) | B (Effective: the antagonistic activity was 65% or more and less than 75% and the more excellent performance than in the positive control was shown.) | high effect | 
6 | maltopentaose | high efficacy | B (Effective: the antagonistic activity was 65% or more and less than 75% and the more excellent performance than in the positive control was shown.) | B (Effective: the antagonistic activity was 65% or more and less than 75% and the more excellent performance than in the positive control was shown.) | B (Effective: the antagonistic activity was 65% or more and less than 75% and the more excellent performance than in the positive control was shown.) | A (Complete response: the antagonistic activity was 75% or more and much more excellent performance than in the positive control was shown.) | A (Complete response: the antagonistic activity was 75% or more and much more excellent performance than in the positive control was shown.) | high effect | 
7 | maltotriose |  | C (Slightly effective: the antagonistic activity was less than 65%, and a stimulating or agonistic activity of the sample was weak.) | C (Slightly effective: the antagonistic activity was less than 65%, and a stimulating or agonistic activity of the sample was weak.) | C (Slightly effective: the antagonistic activity was less than 65%, and a stimulating or agonistic activity of the sample was weak.) | B (Effective: the antagonistic activity was 65% or more and less than 75% and the more excellent performance than in the positive control was shown.) | A (Complete response: the antagonistic activity was 75% or more and much more excellent performance than in the positive control was shown.) | high effect | 

From US8426386B2, “NK1 receptor antagonist composition” (Lion Corporation, priority 2006, dated 2013)
